# Columns and labels:
# circulating FGF21 levels = assay: oral fructose load versus oral glucose load, circulating FGF21 in human subjects; type: in vivo; conditions: two hours after ingestion of 75 grams of fructose, lean healthy subjects
# From the text: FIGS. 2A-2B show plasma FGF21 levels: FIG. 2A) following ingestion of 75 grams glucose (n=8) and FIG. 2B) Plasma FGF21 levels following ingestion of 75 grams fructose in human subjects (n=10).
# To test whether fructose ingestion can acutely regulate circulating FGF21 in human subjects, we compared the effects of administering a 75 gram oral glucose load versus a 75 gram oral fructose load on circulating FGF21 levels in lean healthy subjects. Ingestion of glucose has no effect on FGF21 levels (FIG. 2A and ^14). In contrast, circulating FGF21 levels increase ˜4-fold two hours after ingestion of 75 grams of fructose (FIG. 2B). Thus oral fructose ingestion, but not glucose ingestion acutely and robustly increases circulating FGF21 levels. To our knowledge FGF21 is the only known measurable circulating biomarker that specifically assesses an individual's acute metabolic response to fructose ingestion.
# [1] = fructose: at first pass; cited from earlier work
# [2] = tested on: hepatic ChREBP-β, ChREBP transcriptional targets and circulating FGF21; assay: mice fed chow, 60% dextrose or 60% fructose diets for 7 weeks: hepatic mRNA expression and circulating FGF21; type: in vivo; conditions: 7 weeks of 60% diet
# From the text: FIGS. 1A-1C are bar graphs of hepatic mRNA expression (FIG. 1A, 1B) and circulating (FIG. 1C) FGF21 levels in 15-week-old mice fed chow, 60% dextrose, or 60% fructose diets for 7 weeks, sacrificed in the ad lib fed state. * P<0.05 compared to all other groups. n=5-7 per group.
# The FGF21 gene contains a ChREBP binding site in its promoter and exposure of primary hepatocytes to high glucose concentrations increases FGF21 expression in a ChREBP dependent manner^37,38. To determine whether ChREBP might regulate circulating FGF21 levels we fed mice chow, 60% dextrose, or 60% fructose diets. […] Thus, we hypothesized that the increase in circulating FGF21 levels associated with features of the metabolic syndrome might be due to activation of hepatic ChREBP and that fructose consumption might be important for this.
smiles,measurement,setting,value
O=C(CO)[C@@H](O)[C@H](O)[C@H](O)CO [fructose],increase of circulating FGF21 levels,circulating FGF21 levels,~4 fold
same,share of an oral load taken up / extracted by the liver,[1],~100%
same,circulating FGF21 levels,[2],highest levels
same,effect of fructose on hepatic ChREBP-β expression relative to that of dextrose,[2],~3 fold
same,"expression of ChREBP transcriptional targets (Pklr, Fasn, FGF21) in liver",[2],greater increase
same,hepatic expression of ChREBP-β compared to chow,[2]; ad lib fed state,markedly increases

# Reference: patent US10132816B2, “Measurement of FGF21 as a biomarker of fructose metabolism” (Beth Israel Deaconess Medical Center, Inc., priority 2013, dated 2018)
